Values quoted from earlier work, collected in patent US20240156808A1, “Compositions and methods to improve the therapeutic benefit of suboptimally chemical compounds and biological therapies including substituted camptothecins such as irinotecan and topotecan for the treatment of benign and neoplastic hyperproliferative disease conditions, infections, inflammatory and …” (Edison Oncology, priority 2021, published 2024).

Assays:
CES2 = target: T1, CES2 (Homo sapiens, UniProt O00748); conditions: CES2 versus CES1
T1 sequence (O00748 27-559): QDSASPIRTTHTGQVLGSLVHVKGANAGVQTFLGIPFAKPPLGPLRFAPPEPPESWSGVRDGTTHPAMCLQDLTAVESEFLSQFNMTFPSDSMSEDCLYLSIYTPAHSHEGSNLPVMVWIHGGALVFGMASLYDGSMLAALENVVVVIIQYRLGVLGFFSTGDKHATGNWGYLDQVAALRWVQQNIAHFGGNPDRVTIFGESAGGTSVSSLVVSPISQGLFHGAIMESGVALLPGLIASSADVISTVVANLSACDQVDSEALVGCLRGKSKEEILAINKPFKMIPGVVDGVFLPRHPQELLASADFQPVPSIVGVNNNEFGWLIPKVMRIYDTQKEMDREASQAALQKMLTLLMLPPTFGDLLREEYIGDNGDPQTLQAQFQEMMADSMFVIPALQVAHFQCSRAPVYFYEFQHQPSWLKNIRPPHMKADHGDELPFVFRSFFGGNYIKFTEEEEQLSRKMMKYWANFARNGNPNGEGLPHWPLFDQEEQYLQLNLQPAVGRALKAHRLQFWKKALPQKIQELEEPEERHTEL

elimination half-life (SN-38) | time to peak plasma concentration (after infusion) | distribution half-life (in vivo) | SMILES | fraction of irinotecan hydrolyzed to SN-38 (in the liver by CES1 and CES2, also in plasma by butyrylcholinesterase) | affinity of CES2 for irinotecan relative to CES1 (CES2)
6 to 32 h | two | about 8 minutes | CCc1c2c(nc3ccc(O)cc13)-c1cc3c(c(=O)n1C2)COC(=O)[C@]3(O)CC [SN-38] |  | 
 |  |  | CCc1c2c(nc3ccc(OC(=O)N4CCC(N5CCCCC5)CC4)cc13)-c1cc3c(c(=O)n1C2)COC(=O)[C@]3(O)CC [irinotecan, (S)-4,11-diethyl-3,4,12,14-tetrahydro-4-hydroxy-3,14-dioxo1H-pyrano[3′,4′:6,7]-indolizino[1,2-b]quinolin-9-yl-[1,4′bipiperidine]-1′-carboxylate] | 2-5% | 12.5 fold
